Data reported in US20060104902A1, “Method of preselection patients for anti-VEGF, anti-HIF-1 or anti-thioredoxin therapy” (priority 2004, published 2006).

Experiments:
HT-29 xenografts = conditions: up to three hours post-treatment; cited from earlier work
mouse VEGF (mVEGF) = test: Mouse VEGF ELISA in tumor and plasma of HT-29 xenograft mice after PX-12; assay type: in vivo, SCID mice
Procedure: (§1) FIG. 12. Human VEGF levels (pg/μg protein) in HT-29 xenografts, and VEGF levels (pg/ml) in plasma after treatment with PX-12, 25 mg/kg ip (n=4 mice per time point).
(§2) VEGF detection. Plasma was collected into EDTA tubes and tumors were removed and immediately snap frozen in liquid nitrogen. Tumors were then placed in buffer (10 mM Tris/HCl pH 7.4, and 100 mM NaCl) and homogenized using a PowerGen 125, Fisher Scientific, Pittsburgh, Pa. The suspension was then centrifuged twice at 8,000×g at 4° C. for 15 min. Protein was quantitated in supernatant using the Pierce BCA assay. VEGF levels were quantitated in plasma and tumor lysates using both human (hVEGF) and mouse VEGF […] ELISAs (R&D systems, Minneapolis, Minn.), according the manufactures' instructions.
(§3) This example illustrates the effects of PX-12 on plasma and tumor VEGF levels, as measured by ELISA assays. In these xenografts, hVEGF is derived from the tumor and mVEGF from the host vasculature and stromal tissue, resulting in considerably higher hVEGF than mVEGF in the tumor. Although the endothelium is mouse derived, hVEGF inhibition in xenograft models has been reported to cause obliteration of the host tumor vasculature, implying that hVEGF is active at mouse VEGF receptors VEGFRI (Flt-i) and VEGFR2 (KDR). Therefore, levels of both mouse and human VEGF were measured in the tumor and plasma samples collected.
Some tumors are reported to secrete VEGF into the plasma which can then act on endothelial cells in a paracrine manner or on tumor cells in an autocrine loop if the tumor expresses the VEGF receptors VEGFRI or VEGFR2. Plasma hVEGF expression was too low to be detected in the plasma from the HT-29 xenografts.

advanced malignancies = conditions: cited from earlier work
human VEGF (hVEGF) = test: Human VEGF ELISA in HT-29 xenograft tumors after PX-12; assay type: in vivo, SCID mice; conditions: PX-12 25 mg/kg ip
Procedure: as §1, §2, §3

human tumor xenografts = conditions: cited from earlier work
Trx-1 = target: T1, Trx-1 (Homo sapiens, UniProt P10599); conditions: cited from earlier work
T1 sequence (P10599 1-105): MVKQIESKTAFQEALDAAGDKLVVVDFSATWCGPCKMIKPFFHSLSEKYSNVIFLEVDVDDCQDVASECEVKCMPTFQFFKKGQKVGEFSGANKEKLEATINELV

HT-29 tumor xenografts = test: DCE-MRI with Gd-BSA: tumor vascular permeability and vascular volume fraction; assay type: in vivo, SCID mice
current tumor model = conditions: by 24 h post-treatment; cited from earlier work
hypoxic cells = conditions: cited from earlier work

## COc1ccc(/C=C\c2cc(OC)c(OC)c(OC)c2)cc1OP(=O)(O)O [CA4P, combretastatin A4 phosphate]
HT-29 xenografts
  tumor perfusion: only a small decrease

## Cc1ccc2c(=O)c3cccc(CC(=O)O)c3oc2c1C [DMXAA]
HT-29 xenografts
  tumor perfusion: considerably decreased

## CCC(C)SSc1ncc[nH]1 (stereo not shown) [PX-12, 1-methylpropyl 2-imidazolyl disulfide]
Mouse VEGF (mVEGF); 2 hours post treatment, PX-12 25 mg/kg ip
  mouse plasma VEGF levels: showed a decrease
Mouse VEGF (mVEGF); after 24 h of PX-12 treatment, 25 mg/kg ip, P<0.02
  mouse VEGF in plasma: significant decrease
Mouse VEGF (mVEGF); starting at 2 h, not statistically significant at any time point, PX-12 25 mg/kg ip
  mouse VEGF in tumor: only a small decrease
Advanced malignancies; as soon as 4 hours post drug administration
  circulating levels of VEGF in patients: decrease
Advanced malignancies; patients with advanced malignancies
  antitumor activity in phase I study: revealed antitumor activity
Human VEGF (hVEGF); 2 or 12 hours post-treatment
  tumor VEGF levels: no significant change
Human VEGF (hVEGF); after 24 hours of treatment
  hVEGF levels within the tumors: significant decrease
Human tumor xenografts; human tumor xenografts in SCID mice
  in vivo antitumor activity: in vivo antitumor activity
Human tumor xenografts; xenograft tumors
  expression of HIF 1α and VEGF and microvessel density: significant decreases
Trx-1
  concentrations at which active as a Trx-1 inhibitor: submicromolar
HT-29 tumor xenografts; 12 hours after PX-12 treatment
  mean reduction in permeability: 59.2%
HT-29 tumor xenografts; 24 h post-treatment with PX-12
  mean reduction in permeability: 51.6%
HT-29 tumor xenografts; 48 hours after PX-12, not significant
  change in permeability (return to control values): +3.4±17.6%
HT-29 tumor xenografts; any time point (2-48 h) after PX-12
  vascular volume fraction of the tumor, control vs treated: not significantly modified
HT-29 tumor xenografts; within 2 hours after PX-12 injection
  mean reduction in tumor blood vessel permeability vs untreated tumors: 63.4%

## Cc1[nH]c(/C=C2\C(=O)Nc3ccccc32)c(C)c1CCC(=O)O [SU6668]
Current tumor model
  fractional plasma volume: decrease

## C[N+](C)([O-])CCCNc1c2ccccc2nc2cccc([N+](=O)[O-])c12 [aliphatic N-oxide of nitacrine]
Hypoxic cells
  selectivity for hypoxic cells: approximately 1500 fold

## Avastin: human anti-VEGF antibody Avastin (Bevacizumab, Genentech) [reference compound]
HT-29 tumor xenografts; 1 h post-Tx, HT-29, mean
  vascular volume fraction VVf (%): 4.4%
HT-29 tumor xenografts; one hour after injection, 20 μl/30 g i.v.
  decrease in vascular volume fraction: 31.5%
HT-29 tumor xenografts; within an hour of injection, 20 μl/30 g i.v.
  decrease in vascular permeability: 75%
